# According to US6759520B1, “Chimeric analgesic peptides” (priority 1999, dated 2004):
# Key:
# Sprague Dawley rats [1] = assay: Tail flick test after intrathecal administration; type: in vivo, rat; settings: for change in analgesia, antagonist alone: control experiment, p>0.05
# Protocol: (§1) ESP7 was tested clinically in rats to determine analgesic effect and tolerance. The classical tail flick test was used to measure pain response and thermal pain was mimicked using a heat source. This system was controlled using standard opioids. The drug was administered with cyclodextran to increase solubility of the peptide in an aqueous solution.
# Adult male Sprague Dawley rats (200-250 g) were implanted with chronic indwelling intrathecal catheters using a modified protocol of Yaksh and Rudy, Physiol. Behav., 17: 1031-1036 (1976). […] The rats were anesthetized throughout the surgery with 5.0% isoflurane. The catheter was inserted through the alanto-occipital membrane and into the intrathecal space using a guide wire. Sutures were used to secure the placement of the catheter. The rats were allowed to recover from surgery for 3-4 days and any rats with neurological impairment were not used for analgesic measurements. Rats were housed separately in a 12 hr light-dark cycle with free access to food and water. During their recovery from surgery, rats were habituated to the laboratory environment and analgesic testing apparatus.
# For measurement of the thermal anti-nociceptive properties of the peptides of interest, the tail flick test was employed. Rats were first habituated to the tail flick chamber. During testing, the rats were placed in the chamber and a light source, which generated heat, was directed at their tail. The latency to remove the tail was recorded. The baseline latency was approximately 3.5 sec and the cutoff latency was 10 sec to avoid tissue damage. Three measurements were made at each pre- and post-treatment time point and the results were averaged. Responses were expressed as % maximum possible effect: […]
# Rats were given doses of 1.0 μg (FIG. 5), 0.2 μg (FIG. 6), and 0.05 μg (FIG. 7) of ESP7. The desired concentration of the compound (in 10 μl) was injected into the catheter followed by 10 μl saline flush to fill the dead volume. ESP7 was combined with two molecules of cyclodextrin (ESP7+2CD) to increase solubility. […]
# μ receptor = molecular target: T1, μ receptor (Rattus norvegicus, UniProt P33535); assay: μ receptor binding assay, [3H]DAMGO competition, crude rat brain plasma membranes
# T1 construct: frozen rat brains (−80° C.) were homogenized in 40 volumes of standard Tris buffer; from tissue; host or cells: rat brain (crude plasma membranes)
# Protocol: For binding assays to opioid receptors, frozen rat brains (−80° C.) were homogenized in 40 volumes of standard Tris buffer (50 mM Tris HCl (pH 7.4), 0.2 mg/ml BSA, 2.5 mM EDTA, 40 μg/ml bacitracin, 30 μg/ml bestatin and 5 mM MgCl2) and centrifuged at 15,000×g for 20 minutes. 100 mM NaCl was added to the buffer, in order to remove endogenous ligands, and the centrifugation was repeated. After a wash with standard buffer, the membrane preparation was finally resuspended in 10 volumes of incubation buffer (standard buffer with 4 μg/ml leupeptin and 2 μg/ml chymostatin). […] The brain homogenates were used on the day of preparation.
# Binding assays for the μ receptor were performed at 4° C. for 90 minutes, as described in Zadina et al., Life Sci, 55: 461-466 (1994). […] After incubation the samples were filtered on a Brandell-Harvester using an appropriate GF/B filter soaked in 50 mM Tris HCl (pH 7.4) and 0.5% PEI. Scintillation fluid was added to the filters in order to solubilize the membranes, and a beta-counter was used to quantify radioactivity.
# NK1 receptor = molecular target: T2, NK1 receptor (Rattus norvegicus, UniProt P14600); assay: SP (NK1) receptor binding assay, [125I]BH-SP competition, crude rat brain plasma membranes
# T2 construct: The same procedure was followed for the SP receptor except the wash with NaCl was eliminated; from tissue; host or cells: rat brain (crude plasma membranes)
# Sprague Dawley rats [2] = assay: Tail flick test after intracerebroventricular administration; type: in vivo, rat; settings: 1.0 μg intracerebroventricular; data not shown
# Protocol: as §1
# Adult male Sprague Dawley rats weighing 200-250 g were used. Before surgery, the rats were anesthesized with 0.2-0.3 mL of xylazine (10%) and ketamine (90%). Rats were positioned in a stereotaxic apparatus and the bregma was located. To reach the lateral ventricle, a hole was drilled 0.8 mm caudal and 1.4-1.5 mm left or right of the bregma. The catheter was inserted 4.5 mm deep into the brain and 4.0 cm of polyethylene tubing was connected to the end to the catheter. Screws and dental cement were used to secure the catheter in place. After suturing the skin, the rats were allowed to recover from surgery for 4-5 days. Each rat was housed separately in a 12 hr light-dark cycle with free access to food and water. Rats with any neurological problems were not used in the analgesic testing.
# The tail flick assay was used to measure analgesia as described above in Example 2.1. Briefly, the rats were first habituated to the tail flick chamber. […] The latency to remove the tail was recorded. […] Responses were expressed as % maximum possible effect (MPE): [formula]
# rats = assay: Tail flick test after intraperitoneal administration; type: in vivo, rat; settings: 1 mg intraperitoneal
# Protocol: as §1
# ESP7 was administered intraperitoneally in order to assess the effectiveness of ESP7 systemically. The tail flick assay was used to measure analgesia as described above in Example 2.1. Briefly, the rats were first habituated to the tail flick chamber. During testing, the rats were placed in the chamber and a light source, which generated heat, was directed at their tail. The latency to remove the tail was recorded. The baseline latency was approximately 3.5 sec and the cutoff latency was 10 sec to avoid tissue damage. Three measurements were made at each pre- and post-treatment time point and the results were averaged. Responses were expressed as % maximum possible effect (MPE): [formula]
# T1 sequence (P33535 whole entry): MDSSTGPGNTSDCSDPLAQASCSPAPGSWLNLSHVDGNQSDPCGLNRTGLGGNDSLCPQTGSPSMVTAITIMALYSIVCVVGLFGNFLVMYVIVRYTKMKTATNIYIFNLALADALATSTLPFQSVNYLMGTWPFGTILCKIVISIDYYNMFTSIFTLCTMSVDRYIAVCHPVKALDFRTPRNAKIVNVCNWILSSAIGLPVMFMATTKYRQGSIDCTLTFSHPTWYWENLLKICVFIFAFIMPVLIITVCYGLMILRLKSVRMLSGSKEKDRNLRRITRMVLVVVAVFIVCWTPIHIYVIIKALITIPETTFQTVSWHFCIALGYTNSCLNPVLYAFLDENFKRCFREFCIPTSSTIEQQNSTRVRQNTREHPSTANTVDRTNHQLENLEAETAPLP
# T2 sequence (P14600 whole entry): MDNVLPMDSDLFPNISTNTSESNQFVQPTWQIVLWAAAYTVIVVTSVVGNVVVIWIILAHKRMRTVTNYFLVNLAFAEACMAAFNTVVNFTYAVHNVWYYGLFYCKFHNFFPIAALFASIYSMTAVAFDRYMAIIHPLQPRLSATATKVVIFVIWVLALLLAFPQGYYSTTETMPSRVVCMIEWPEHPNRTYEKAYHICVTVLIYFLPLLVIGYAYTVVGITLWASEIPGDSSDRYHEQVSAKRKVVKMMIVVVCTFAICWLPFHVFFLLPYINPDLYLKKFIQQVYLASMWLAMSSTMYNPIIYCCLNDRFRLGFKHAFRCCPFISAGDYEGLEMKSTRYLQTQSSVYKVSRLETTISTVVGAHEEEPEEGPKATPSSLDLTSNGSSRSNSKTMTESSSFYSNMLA
Molecule,"change in analgesia, antagonist alone (Sprague Dawley rats [1])",hyperalgesia when naltrexone is given with ESP7+2CD (Sprague Dawley rats [1]; naltrexone with 0.2 μg and 1.0 μg ESP7+2CD intrathecal),Kd (μ receptor),Kd (NK1 receptor),"analgesia (tail flick, % MPE) (Sprague Dawley rats [2])","analgesia (tail flick, % MPE) (rats)"
COc1ccccc1CC(=N)N1C[C@@H]2C(=O)CCC(c3ccccc3)(c3ccccc3)[C@@H]2C1 [RP67580],no effect on the level of analgesia,–,–,–,–,–
O=C1CC[C@@]2(O)[C@H]3Cc4ccc(O)c5c4[C@@]2(CCN3CC2CC2)[C@H]1O5 [naltrexone],produced no change in analgesia,produced some hyperalgesia,–,–,–,–
"H-YPFFGLM-NH2 [ESP7, Tyr-Pro-Phe-Phe-Gly-Leu-Met-NH2]",–,–,~300 nM,~200 nM,produced analgesia,produced analgesia as seen with intrathecal administration
